Laboratory results from ChEMBL document CHEMBL1201862, “PubChem BioAssay data set” (2004).
The source made the active and inactive calls.

Key:
[1] = molecular target: Genome polyprotein (dengue virus type 2, UniProt P29990); assay: flavivirus cap methylation enzyme inhibition – biochemical, confirmation dose response, primary screen (AID 588689); format: functional
[2] = viability of PTEN-deleted HCT116 cells – cell-based, HCT116 PTEN knockout, dose response (AID 1047); format: functional;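 note: HCT116 colon tumor cells with PTEN knocked out; cells exposed to compound for 60 hours before readout; potency for loss of cell viability measured by luminescence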
[3] = NIH-3T3 fibroblast cytotoxicity, dose response, cytotoxicity control, cell-based, fluorescence, Alamar Blue, secondary assay (AID 2327); format: functional;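 note: NIH-3T3 mouse fibroblasts cultured with fluconazole at 8 µg/mL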
[4] = molecular target: Heat shock protein HSP 90-alpha (Homo sapiens, UniProt P07900); format: functional, organism-based
[5] = viability of HCT116 lacking mutant beta-catenin – cell-based, human colon tumor, dose response (AID 1045); format: functional;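 note: HCT116 colon tumor cells with beta catenin knocked out; cells exposed to compound for 60 hours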
[6] = test system: Vero; assay: cells; format: functional; details: Chlorocebus sabaeus
[7] = HEK-293T viability loss after treatment – luminescence, T-cell screen hits, cytotoxicity control for TCR NF-kB inhibitor project, dose response (AID 489026); format: functional, cell-based;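 note: cells exposed to compound about 14 hours before the viability readout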
[8] = molecular target: Eukaryotic translation initiation factor 4E (Mus musculus, UniProt P63073); assay: blockers of eIF4G binding by eIF4E – biochemical, TR-FRET, dose response (AID 855); format: functional;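 note: potency for disrupting eIF4E binding to eIF4GI seen as loss of FRET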
Chain of Eukaryotic translation initiation factor 4E (P63073 whole entry): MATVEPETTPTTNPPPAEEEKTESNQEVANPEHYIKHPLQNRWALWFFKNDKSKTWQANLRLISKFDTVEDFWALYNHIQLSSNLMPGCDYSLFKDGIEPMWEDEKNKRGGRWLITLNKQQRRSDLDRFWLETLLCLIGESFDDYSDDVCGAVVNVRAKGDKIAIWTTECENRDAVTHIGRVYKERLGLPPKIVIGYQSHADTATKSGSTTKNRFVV

[9] = molecular target: T1, Ubiquitin-conjugating enzyme E2 N (Homo sapiens, UniProt P61088); format: functional;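 note: Dose-response confirmation in a TR-FRET assay detecting UBC13-driven polyubiquitin chain formation, inhibition measured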
T1 sequence (P61088 whole entry): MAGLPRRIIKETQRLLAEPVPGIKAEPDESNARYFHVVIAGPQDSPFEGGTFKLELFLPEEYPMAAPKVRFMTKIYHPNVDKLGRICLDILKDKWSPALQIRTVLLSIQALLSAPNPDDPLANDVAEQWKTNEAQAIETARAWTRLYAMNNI

[10] = molecular target: T2, Apoptotic protease-activating factor 1 (Homo sapiens, UniProt O14727); format: functional
T2 sequence (O14727 whole entry): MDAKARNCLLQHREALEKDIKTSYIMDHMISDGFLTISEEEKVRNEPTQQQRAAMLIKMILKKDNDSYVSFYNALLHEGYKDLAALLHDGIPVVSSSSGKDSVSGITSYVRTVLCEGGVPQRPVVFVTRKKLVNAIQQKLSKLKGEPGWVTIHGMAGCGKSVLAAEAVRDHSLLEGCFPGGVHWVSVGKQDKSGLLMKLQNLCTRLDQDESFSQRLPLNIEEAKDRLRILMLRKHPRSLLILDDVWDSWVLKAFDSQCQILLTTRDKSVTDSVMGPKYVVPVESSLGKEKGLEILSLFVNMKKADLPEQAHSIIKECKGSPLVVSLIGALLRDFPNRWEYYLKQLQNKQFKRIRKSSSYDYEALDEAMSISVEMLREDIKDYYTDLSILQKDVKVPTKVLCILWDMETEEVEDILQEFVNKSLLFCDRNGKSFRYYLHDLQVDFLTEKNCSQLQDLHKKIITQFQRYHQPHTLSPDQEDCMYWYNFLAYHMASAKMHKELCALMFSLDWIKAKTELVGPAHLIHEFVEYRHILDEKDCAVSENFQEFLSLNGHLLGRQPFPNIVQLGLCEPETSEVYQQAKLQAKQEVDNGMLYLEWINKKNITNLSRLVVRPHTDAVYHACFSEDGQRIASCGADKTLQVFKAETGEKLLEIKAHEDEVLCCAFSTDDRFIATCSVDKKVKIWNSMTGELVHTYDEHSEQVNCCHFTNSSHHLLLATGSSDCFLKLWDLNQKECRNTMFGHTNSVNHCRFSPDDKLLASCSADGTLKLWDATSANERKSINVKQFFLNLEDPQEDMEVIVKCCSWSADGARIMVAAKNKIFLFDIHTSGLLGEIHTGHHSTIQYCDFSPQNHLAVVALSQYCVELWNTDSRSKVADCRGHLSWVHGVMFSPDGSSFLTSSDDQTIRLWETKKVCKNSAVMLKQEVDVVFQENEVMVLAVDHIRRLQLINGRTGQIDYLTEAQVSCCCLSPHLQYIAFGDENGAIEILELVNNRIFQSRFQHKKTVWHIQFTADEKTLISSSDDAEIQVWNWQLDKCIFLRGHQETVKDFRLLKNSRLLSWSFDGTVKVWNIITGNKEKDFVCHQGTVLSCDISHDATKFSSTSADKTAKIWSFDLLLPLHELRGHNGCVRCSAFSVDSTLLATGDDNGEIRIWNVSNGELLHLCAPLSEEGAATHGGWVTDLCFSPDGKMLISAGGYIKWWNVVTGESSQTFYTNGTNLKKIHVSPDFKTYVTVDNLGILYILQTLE

[11] = test system: INS1; assay: INS-1E survival protection against cytokine death – cell-based, luminescence, retest, dose response (AID 449756); format: functional; details: Rattus norvegicus;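 note: cell death triggered by IL-1 beta plus TNF-alpha plus IFN-gamma mixture; protective hits raise ATP signal compared with cytokine alone wells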
[12] = fluconazole-exposed Candida albicans growth modulators – fluorescence, retest, confirmation (AID 2467); format: functional, cell-based
[13] = DRD fibroblast viability loss – cell-based, non-viral oncogenic, luminescence, dose response (AID 1934); format: functional; details: Homo sapiens
[14] = test system: Vero; assay: cells; format: functional, cell-based; details: Chlorocebus sabaeus
[15] = test system: BJ; assay: BJ-TERT-LT-ST fibroblast viability loss – cell-based, RAS-independent, luminescence, dose response (AID 1935); format: functional; details: Homo sapiens;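 note: BJ fibroblasts immortalized with TERT plus LT and ST oncogenes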
[16] = test system: BJ; assay: cells; format: functional, cell-based; details: Homo sapiens
[17] = test system: BJ; assay: BJ-TERT fibroblast viability loss – cell-based, RAS-independent, luminescence, dose response (AID 1933); format: functional; details: Homo sapiens
[18] = molecular target: Beta-2 adrenergic receptor (Homo sapiens, UniProt P07550); assay: ADRB2 activation measured by internalization – cell-based, FAP fluorogen, flow cytometry, cherry pick 1, dose response (AID 588763); format: functional
Chain of Beta-2 adrenergic receptor (P07550 whole entry): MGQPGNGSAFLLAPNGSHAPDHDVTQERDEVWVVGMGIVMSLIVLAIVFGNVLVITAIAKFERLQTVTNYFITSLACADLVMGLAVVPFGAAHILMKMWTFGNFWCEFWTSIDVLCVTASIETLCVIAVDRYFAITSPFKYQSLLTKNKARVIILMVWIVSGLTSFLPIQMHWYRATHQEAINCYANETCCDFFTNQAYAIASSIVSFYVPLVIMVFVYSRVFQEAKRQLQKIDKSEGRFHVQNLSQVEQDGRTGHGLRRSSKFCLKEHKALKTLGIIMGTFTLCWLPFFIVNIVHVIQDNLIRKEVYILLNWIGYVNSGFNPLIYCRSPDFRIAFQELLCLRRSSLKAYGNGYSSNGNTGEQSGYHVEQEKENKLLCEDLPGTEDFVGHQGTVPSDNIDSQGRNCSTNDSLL

[19] = molecular target: T3, High affinity choline transporter 1 (Homo sapiens, UniProt Q9GZV3); assay: human choline transporter blockers, potency – cell-based, 5-point CRC, membrane potential dye, dose response (AID 504840); format: functional
T3 sequence (Q9GZV3 whole entry): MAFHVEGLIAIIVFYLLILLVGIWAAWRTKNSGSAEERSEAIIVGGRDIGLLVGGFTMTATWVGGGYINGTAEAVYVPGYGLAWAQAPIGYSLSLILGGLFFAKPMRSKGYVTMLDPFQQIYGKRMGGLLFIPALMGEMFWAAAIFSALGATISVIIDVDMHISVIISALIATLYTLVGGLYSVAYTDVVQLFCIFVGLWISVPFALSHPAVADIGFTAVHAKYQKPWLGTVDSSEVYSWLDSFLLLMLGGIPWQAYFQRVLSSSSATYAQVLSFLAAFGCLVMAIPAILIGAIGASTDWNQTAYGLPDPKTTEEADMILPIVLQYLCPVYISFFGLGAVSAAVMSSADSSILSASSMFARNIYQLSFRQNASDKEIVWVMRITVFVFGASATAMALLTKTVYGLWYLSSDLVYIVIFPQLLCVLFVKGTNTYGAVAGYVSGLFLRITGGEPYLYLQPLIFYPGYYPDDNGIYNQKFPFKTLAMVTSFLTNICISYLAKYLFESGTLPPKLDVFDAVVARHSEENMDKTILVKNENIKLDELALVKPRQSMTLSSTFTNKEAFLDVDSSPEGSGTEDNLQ

[20] = molecular target: Cytochrome P450 2C19 (Homo sapiens, UniProt P33261); assay: Cytochrome panel assay with activity outcomes. Panel member name: p450-cyp2c19 Compounds with AC50 equal or less than 10 uM are considered active; format: functional; details: read-out: AC50
Chain of Cytochrome P450 2C19 (P33261 whole entry): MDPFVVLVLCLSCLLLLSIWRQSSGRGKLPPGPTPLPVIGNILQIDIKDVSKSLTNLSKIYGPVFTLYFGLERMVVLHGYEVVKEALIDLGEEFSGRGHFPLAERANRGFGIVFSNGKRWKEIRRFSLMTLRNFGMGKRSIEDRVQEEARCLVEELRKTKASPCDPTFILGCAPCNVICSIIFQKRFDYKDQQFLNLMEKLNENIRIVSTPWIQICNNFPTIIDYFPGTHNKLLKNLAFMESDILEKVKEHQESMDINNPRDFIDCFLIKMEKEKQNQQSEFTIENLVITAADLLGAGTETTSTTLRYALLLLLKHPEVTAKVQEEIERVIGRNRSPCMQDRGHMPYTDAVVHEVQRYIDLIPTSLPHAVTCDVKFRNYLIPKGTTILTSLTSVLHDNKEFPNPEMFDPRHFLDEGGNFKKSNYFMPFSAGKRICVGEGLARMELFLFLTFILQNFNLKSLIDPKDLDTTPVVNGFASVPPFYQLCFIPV

[21] = molecular target: T4, Cytochrome P450 1A2 (Homo sapiens, UniProt P05177);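 note: PubChem cytochrome P450 panel assay, CYP1A2 panel member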
T4 sequence (P05177 whole entry): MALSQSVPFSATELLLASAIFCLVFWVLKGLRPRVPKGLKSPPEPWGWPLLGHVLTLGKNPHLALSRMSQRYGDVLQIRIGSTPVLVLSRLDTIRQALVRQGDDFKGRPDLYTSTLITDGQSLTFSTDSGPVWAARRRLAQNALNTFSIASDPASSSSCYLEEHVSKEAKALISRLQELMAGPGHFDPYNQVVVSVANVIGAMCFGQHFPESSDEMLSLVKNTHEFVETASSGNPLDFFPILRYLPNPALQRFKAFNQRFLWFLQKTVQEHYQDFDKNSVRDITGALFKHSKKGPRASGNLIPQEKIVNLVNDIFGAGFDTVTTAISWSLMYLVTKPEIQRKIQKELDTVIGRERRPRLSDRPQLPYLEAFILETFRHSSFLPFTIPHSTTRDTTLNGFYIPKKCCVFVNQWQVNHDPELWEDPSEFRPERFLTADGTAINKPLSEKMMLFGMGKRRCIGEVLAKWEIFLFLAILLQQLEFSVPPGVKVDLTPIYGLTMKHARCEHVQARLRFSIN

[22] = molecular target: T5, Coagulation factor XII (Homo sapiens, UniProt P00748); format: functional;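 note: activated factor XIIa alpha cleaving a fluorogenic AMC peptide substrate; inhibitor potency from loss of enzyme activity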
T5 sequence (P00748 whole entry): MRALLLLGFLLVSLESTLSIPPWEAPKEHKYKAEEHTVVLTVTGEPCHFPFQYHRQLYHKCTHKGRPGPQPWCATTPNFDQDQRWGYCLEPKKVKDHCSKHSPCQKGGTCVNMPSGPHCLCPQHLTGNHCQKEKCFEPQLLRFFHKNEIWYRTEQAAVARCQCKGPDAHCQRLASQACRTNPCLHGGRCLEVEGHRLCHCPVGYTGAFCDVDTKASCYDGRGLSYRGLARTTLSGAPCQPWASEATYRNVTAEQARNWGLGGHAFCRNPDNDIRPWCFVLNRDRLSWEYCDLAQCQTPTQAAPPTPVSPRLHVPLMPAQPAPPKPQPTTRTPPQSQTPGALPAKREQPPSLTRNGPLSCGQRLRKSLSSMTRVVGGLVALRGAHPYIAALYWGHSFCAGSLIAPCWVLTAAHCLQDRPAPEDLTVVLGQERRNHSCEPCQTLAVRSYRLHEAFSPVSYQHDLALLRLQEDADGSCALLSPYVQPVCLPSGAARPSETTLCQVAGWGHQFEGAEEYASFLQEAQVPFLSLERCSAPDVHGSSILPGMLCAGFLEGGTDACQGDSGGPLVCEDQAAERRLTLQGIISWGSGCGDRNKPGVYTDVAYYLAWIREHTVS

Chain of Genome polyprotein (P29990 2492-3391 limits assumed): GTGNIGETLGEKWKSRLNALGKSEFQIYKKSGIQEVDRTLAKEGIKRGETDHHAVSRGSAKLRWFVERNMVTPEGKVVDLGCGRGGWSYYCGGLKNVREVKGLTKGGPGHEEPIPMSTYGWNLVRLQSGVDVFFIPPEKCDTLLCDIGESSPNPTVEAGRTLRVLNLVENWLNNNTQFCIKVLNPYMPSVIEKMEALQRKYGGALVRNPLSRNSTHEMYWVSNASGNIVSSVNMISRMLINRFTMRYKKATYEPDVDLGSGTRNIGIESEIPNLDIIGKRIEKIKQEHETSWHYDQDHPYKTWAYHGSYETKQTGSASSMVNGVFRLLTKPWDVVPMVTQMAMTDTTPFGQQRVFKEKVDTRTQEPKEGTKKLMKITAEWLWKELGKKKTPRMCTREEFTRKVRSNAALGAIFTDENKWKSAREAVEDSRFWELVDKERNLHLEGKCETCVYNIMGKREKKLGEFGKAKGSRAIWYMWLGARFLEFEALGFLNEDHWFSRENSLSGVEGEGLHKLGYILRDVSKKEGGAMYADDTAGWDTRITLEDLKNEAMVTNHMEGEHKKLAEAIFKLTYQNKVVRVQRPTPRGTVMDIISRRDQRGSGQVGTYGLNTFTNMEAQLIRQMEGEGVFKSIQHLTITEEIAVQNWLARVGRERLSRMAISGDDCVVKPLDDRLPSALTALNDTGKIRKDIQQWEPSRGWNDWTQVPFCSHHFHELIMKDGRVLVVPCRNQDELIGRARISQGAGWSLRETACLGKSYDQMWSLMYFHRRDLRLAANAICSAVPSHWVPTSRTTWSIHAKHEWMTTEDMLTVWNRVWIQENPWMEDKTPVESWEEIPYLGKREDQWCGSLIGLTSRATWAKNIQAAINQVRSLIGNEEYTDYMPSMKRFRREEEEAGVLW

Compound: COc1ccccc1N(O)C1CC(=O)N(c2ccc(F)cc2)C1=O (configuration not stated)
- IC50 [1]: 62 µM (active)

Compound: CCCCCCCCCCCCCCCC[n+]1cccc(C(=O)N(CC)CC)c1
- EC50 [2]: 6.46 µM (active)
- EC50 [3]: 41.8 µM (active)
- AC50 [4]: 2.89 µM (active)
- EC50 [5]: 5.92 µM (active)
- CC50 [6]: 18.1 µM (active)
- IC50 [7]: 24.8 µM (inactive)
- IC50 [8]: 28.9 µM (active)
- IC50 [9]: > 20 µM (inactive)
- IC50 [10]: 21.5 µM (active)
- AC50 [11]: 4.92 µM (active)
- EC50 [12]: > 38 µM (not active)

Compound: N#CC1=C(N)OC2=C(CCc3ccccc32)C1c1ccccc1 (configuration not stated)
- EC50 [13]: 0.61 µM (active)
- CC50 [6]: 0.17 µM (active)
- IC50 [14]: > 25 µM (active)
- EC50 [15]: 0.689 µM (inconclusive)
- EC50 [16]: 13.5 µM (active)
- EC50 [17]: 0.645 µM (inconclusive)
- EC50 [18]: 52.5 µM (inactive)

Compound: CCOC(=O)c1nc(NNC(=O)c2ccc([N+](=O)[O-])cc2)sc1C
- EC50 [3]: 30.9 µM (active)
- IC50 [19]: 9.91 µM (active)
- AC50 [11]: 2.7 µM (active)
- EC50 [12]: 2.62 µM (active)

Compound: Cc1cc(OC(=O)c2ccc(Cl)cc2Cl)nc(C)n1
- AC50 [20]: 28.2 µM (inconclusive)
- AC50 [21]: 28.2 µM (inconclusive)
- IC50 [22]: > 50 µM (inconclusive)

Compound: O=C(C(c1ccccc1)c1ccccc1)N1CCN(c2ccccn2)CC1
- EC50 [18]: 0.0379 µM (active)
